Structures are written as SMILES.

The assay has as its target T1, Ephrin type-B receptor 2 (Homo sapiens, UniProt P29323).
T1 sequence (P29323 whole entry): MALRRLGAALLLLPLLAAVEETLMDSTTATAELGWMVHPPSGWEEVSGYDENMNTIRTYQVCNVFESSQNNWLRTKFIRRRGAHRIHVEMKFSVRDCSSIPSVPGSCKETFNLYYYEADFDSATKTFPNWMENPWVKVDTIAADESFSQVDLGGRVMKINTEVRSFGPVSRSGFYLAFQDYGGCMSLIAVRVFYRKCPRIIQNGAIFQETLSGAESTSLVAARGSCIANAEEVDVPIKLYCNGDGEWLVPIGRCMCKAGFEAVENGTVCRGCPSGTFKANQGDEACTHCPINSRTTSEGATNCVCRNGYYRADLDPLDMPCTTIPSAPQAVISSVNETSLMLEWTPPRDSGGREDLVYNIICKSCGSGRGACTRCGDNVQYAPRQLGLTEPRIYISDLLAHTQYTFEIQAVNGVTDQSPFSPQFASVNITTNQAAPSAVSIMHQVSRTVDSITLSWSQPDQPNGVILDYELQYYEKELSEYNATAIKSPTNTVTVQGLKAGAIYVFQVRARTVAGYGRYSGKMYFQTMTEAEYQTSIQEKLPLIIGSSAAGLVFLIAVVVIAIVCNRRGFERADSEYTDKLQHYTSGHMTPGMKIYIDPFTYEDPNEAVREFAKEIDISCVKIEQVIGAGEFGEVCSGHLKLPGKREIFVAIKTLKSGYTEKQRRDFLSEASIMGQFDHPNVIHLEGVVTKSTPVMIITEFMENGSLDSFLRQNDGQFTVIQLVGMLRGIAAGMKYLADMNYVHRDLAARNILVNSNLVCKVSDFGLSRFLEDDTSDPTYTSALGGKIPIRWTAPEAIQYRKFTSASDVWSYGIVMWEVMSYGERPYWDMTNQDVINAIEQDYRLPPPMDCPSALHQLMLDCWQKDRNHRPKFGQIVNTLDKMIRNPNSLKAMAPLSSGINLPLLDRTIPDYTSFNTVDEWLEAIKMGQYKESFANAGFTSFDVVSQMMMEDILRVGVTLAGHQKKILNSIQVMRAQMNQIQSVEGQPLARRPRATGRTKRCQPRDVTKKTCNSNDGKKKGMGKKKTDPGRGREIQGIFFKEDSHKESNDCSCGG
Put plainly: Inhibition of EphB2.

Usually IC50 stands for the point on the concentration scale where inhibition reaches its midpoint. Low values mean higher potency, high ones lower potency. `CS(=O)(=O)c1cccc(Nc2nccc(Nc3c(Cl)ccc4c3OCO4)n2)c1` displayed an IC50 of 50 nM.

The values above are taken from ChEMBL document CHEMBL1145633, “Inhibitors of the tyrosine kinase EphB4. Part 1: Structure-based design and optimization of a series of 2,4-bis-anilinopyrimidines” (Bioorg Med Chem Lett, 2008).
